According to patent publication US12390441B2, “Immunomodulating o-het/aryl azalides” (Zoetis Services LLC, priority 2020, dated 2025):
Marks after values point to notes of the source that are not given here. One block for each molecule: values may come before it.

Legend:
[1] = tested on: IL-1β; assay: Whole blood assay, LPS stimulation, MSD cytokine detection; format: cell-based, bovine; details: fresh whole bovine blood, LPS stimulation; drug concentration giving overstimulation (OS) of IL-1β
[2] = tested on: TNF-α; assay: as above; format: cell-based; details: fresh whole bovine blood
[3] = tested on: BRD pathogens, M. haemolytica and P. multocida; assay: In-vitro MIC model, BRD pathogen screening panel; format: cell-based, Mannheimia haemolytica; Pasteurella multocida; details: for MIC for at least one BRD strain (asterisk on Ex#): Table F, Formula (1-A1a) compounds
[4] = tested on: IL-6; assay: Whole blood assay, LPS stimulation, MSD cytokine detection; format: cell-based; details: fresh whole bovine blood

- IC50 [2]: 44 µM
Compound: CC[C@H]1OC(=O)[C@H](C)[C@@H](O)[C@H](C)[C@@H](O[C@@H]2O[C@H](C)C[C@H](N(C)C(=O)N(C)c3ccccc3)[C@H]2Oc2ccc(OC)cc2)[C@](C)(O)C[C@@H](C)CN(C)[C@H](C)[C@@H](O)[C@]1(C)O [Example C-13]
- IL-1ß OS of LPS [1]: 40 µM
- MIC flag at the example number (Table C) ([3]; at least one BRD strain): C-13* (MIC ≤ 64 μg/mL for at least one BRD strain)

- IC50 [4]: 40 µM
- IC50 [2]: 15 µM
Compound: CCCNC[C@]1(O)[C@H](C)O[C@@H](O[C@H]2[C@H](C)[C@@H](O[C@@H]3O[C@H](C)C[C@H](NC)[C@H]3Oc3cccc(F)c3)[C@](C)(O)C[C@@H](C)CN[C@H](C)[C@@H](O)[C@](C)(O)[C@@H](CC)OC(=O)[C@@H]2C)C[C@@]1(C)OC [Example E-7]
- IL-1ß OS of LPS [1]: 40 µM
- MIC flag at the example number (Table E) ([3]; at least one BRD strain): E-7* (MIC ≤ 64 μg/mL for at least one BRD strain)

- IC50 [4]: 30 µM
- IC50 [2]: 18 µM
Compound: CCCNC[C@]1(O)[C@H](C)O[C@@H](O[C@H]2[C@H](C)[C@@H](O[C@@H]3O[C@H](C)C[C@H](NC)[C@H]3Oc3cc(F)c(OC)c(F)c3)[C@](C)(O)C[C@@H](C)CN[C@H](C)[C@@H](O)[C@](C)(O)[C@@H](CC)OC(=O)[C@@H]2C)C[C@@]1(C)OC [Example E-9]
- IL-1ß OS of LPS [1]: 40 µM
- MIC flag at the example number (Table E) ([3]; at least one BRD strain): E-9* (MIC ≤ 64 μg/mL for at least one BRD strain)

- IC50 [4]: 40 µM
- IC50 [2]: 25 µM
Compound: CCCNC[C@]1(O)[C@H](C)O[C@@H](O[C@H]2[C@H](C)[C@@H](O[C@@H]3O[C@H](C)C[C@H](NC)[C@H]3Oc3ccc(OC)c(OC(C)C)c3)[C@](C)(O)C[C@@H](C)CN[C@H](C)[C@@H](O)[C@](C)(O)[C@@H](CC)OC(=O)[C@@H]2C)C[C@@]1(C)OC [Example E-20]
- IL-1ß OS of LPS [1]: 100 µM
- MIC flag at the example number (Table E) ([3]; at least one BRD strain): E-20* (MIC ≤ 64 μg/mL for at least one BRD strain)

Compound: CC[C@H]1OC(=O)[C@H](C)[C@@H](O[C@H]2C[C@@](C)(OC)[C@](O)(CNCCN(C)C)[C@H](C)O2)[C@H](C)[C@@H](O[C@@H]2O[C@H](C)C[C@H](N(C)C)[C@H]2Oc2ccc(OC)cc2)[C@](C)(O)C[C@@H](C)CN[C@H](C)[C@@H](O)[C@]1(C)O [Example E-107]
- MIC flag at the example number (Table E) ([3]; at least one BRD strain): E-107* (MIC ≤ 64 μg/mL for at least one BRD strain)

Compound: CCCN(C[C@]1(O)[C@H](C)O[C@@H](O[C@H]2[C@H](C)[C@@H](O[C@@H]3O[C@H](C)C[C@H](NC)[C@H]3Oc3ncccn3)[C@](C)(O)C[C@@H](C)CN[C@H](C)[C@@H](O)[C@](C)(O)[C@@H](CC)OC(=O)[C@@H]2C)C[C@@]1(C)OC)c1ncccn1 [Example E-118]
- MIC flag at the example number (Table E) ([3]; at least one BRD strain): E-118* (MIC ≤ 64 μg/mL for at least one BRD strain)

Compound: CCCN(C[C@]1(O)[C@H](C)O[C@@H](O[C@H]2[C@H](C)[C@@H](O[C@@H]3O[C@H](C)C[C@H](NC)[C@H]3Oc3ncc(Cl)cn3)[C@](C)(O)C[C@@H](C)CN[C@H](C)[C@@H](O)[C@](C)(O)[C@@H](CC)OC(=O)[C@@H]2C)C[C@@]1(C)OC)c1ncc(Cl)cn1 [Example E-119]
- MIC flag at the example number (Table E) ([3]; at least one BRD strain): E-119* (MIC ≤ 64 μg/mL for at least one BRD strain)

Compound: CCCN(C[C@]1(O)[C@H](C)O[C@@H](O[C@H]2[C@H](C)[C@@H](O[C@@H]3O[C@H](C)C[C@H](NC)[C@H]3Oc3ncc(C#N)cn3)[C@](C)(O)C[C@@H](C)CN[C@H](C)[C@@H](O)[C@](C)(O)[C@@H](CC)OC(=O)[C@@H]2C)C[C@@]1(C)OC)c1ncc(C#N)cn1 [Example E-122]
- MIC flag at the example number (Table E) ([3]; at least one BRD strain): E-122* (MIC ≤ 64 μg/mL for at least one BRD strain)

Compound: CCCNC[C@]1(O)[C@H](C)O[C@@H](O[C@H]2[C@H](C)[C@@H](O[C@@H]3O[C@H](C)C[C@H](N(C)C)[C@H]3Oc3cccc(C)c3)[C@](C)(O)C[C@@H](C)CN[C@H](C)[C@@H](O)[C@](C)(O)[C@@H](CC)OC(=O)[C@@H]2C)C[C@@]1(C)OC [Example E-123]
- MIC flag at the example number (Table E) ([3]; at least one BRD strain): E-123* (MIC ≤ 64 μg/mL for at least one BRD strain)

Compound: CCCNC[C@]1(O)[C@H](C)O[C@@H](O[C@H]2[C@H](C)[C@@H](O[C@@H]3O[C@H](C)C[C@H](N(C)C)[C@H]3Oc3ccc(OC)nc3)[C@](C)(O)C[C@@H](C)CN[C@H](C)[C@@H](O)[C@](C)(O)[C@@H](CC)OC(=O)[C@@H]2C)C[C@@]1(C)OC [Example E-133]
- MIC flag at the example number (Table E) ([3]; at least one BRD strain): E-133* (MIC ≤ 64 μg/mL for at least one BRD strain)

Compound: CC[C@H]1OC(=O)[C@H](C)[C@@H](O[C@H]2C[C@@](C)(OC)[C@](O)(CNc3ccccc3)[C@H](C)O2)[C@H](C)[C@@H](O[C@@H]2O[C@H](C)C[C@H](NC)[C@H]2Oc2ccccc2)[C@](C)(O)C[C@@H](C)CN[C@H](C)[C@@H](O)[C@]1(C)O [Example E-137]
- MIC flag at the example number (Table E) ([3]; at least one BRD strain): E-137* (MIC ≤ 64 μg/mL for at least one BRD strain)

Compound: CC[C@H]1OC(=O)[C@H](C)[C@@H](O[C@H]2C[C@@](C)(OC)[C@](O)(CNC3CC3)[C@H](C)O2)[C@H](C)[C@@H](O[C@@H]2O[C@H](C)C[C@H](N(C)C)[C@H]2Oc2ccccc2)[C@](C)(O)C[C@@H](C)CN[C@H](C)[C@@H](O)[C@]1(C)O [Example E-140]
- MIC flag at the example number (Table E) ([3]; at least one BRD strain): E-140* (MIC ≤ 64 μg/mL for at least one BRD strain)

Compound: CCCNC[C@]1(O)[C@H](C)O[C@@H](O[C@H]2[C@H](C)[C@@H](O[C@@H]3O[C@H](C)C[C@H](N(C)C(=O)N(C)c4ccccc4)[C@H]3Oc3ccccc3Cl)[C@](C)(O)C[C@@H](C)CN[C@H](C)[C@@H](O)[C@](C)(O)[C@@H](CC)OC(=O)[C@@H]2C)C[C@@]1(C)OC [Example F-10]
- MIC for at least one BRD strain (asterisk on Ex#) [3]: F-10* (MIC ≤ 64 μg/mL for at least one BRD strain)

Compound: CCCNC[C@]1(O)[C@H](C)O[C@@H](O[C@H]2[C@H](C)[C@@H](O[C@@H]3O[C@H](C)C[C@H](N(C)C(=O)N(C)CCC)[C@H]3Oc3ccccc3)[C@](C)(O)C[C@@H](C)CN[C@H](C)[C@@H](O)[C@](C)(O)[C@@H](CC)OC(=O)[C@@H]2C)C[C@@]1(C)OC [Example F-11]
- MIC for at least one BRD strain (asterisk on Ex#) [3]: F-11* (MIC ≤ 64 μg/mL for at least one BRD strain)

Compound: CCCNC[C@]1(O)[C@H](C)O[C@@H](O[C@H]2[C@H](C)[C@@H](O[C@@H]3O[C@H](C)C[C@H](N(C)C(=O)N(C)c4ccccc4)[C@H]3Oc3cccc(OCC)c3)[C@](C)(O)C[C@@H](C)CN[C@H](C)[C@@H](O)[C@](C)(O)[C@@H](CC)OC(=O)[C@@H]2C)C[C@@]1(C)OC [Example F-20]
- MIC for at least one BRD strain (asterisk on Ex#) [3]: F-20* (MIC ≤ 64 μg/mL for at least one BRD strain)

Compound: CCCNC[C@]1(O)[C@H](C)O[C@@H](O[C@H]2[C@H](C)[C@@H](O[C@@H]3O[C@H](C)C[C@H](N(C)C(=O)N(C)c4ccccc4)[C@H]3Oc3ccc(C#N)cc3)[C@](C)(O)C[C@@H](C)CN[C@H](C)[C@@H](O)[C@](C)(O)[C@@H](CC)OC(=O)[C@@H]2C)C[C@@]1(C)OC [Example F-21]
- MIC for at least one BRD strain (asterisk on Ex#) [3]: F-21* (MIC ≤ 64 μg/mL for at least one BRD strain)

Compound: CCCNC[C@]1(O)[C@H](C)O[C@@H](O[C@H]2[C@H](C)[C@@H](O[C@@H]3O[C@H](C)C[C@H](N(C)C(=O)N4CCOc5ccccc54)[C@H]3Oc3ccccc3)[C@](C)(O)C[C@@H](C)CN[C@H](C)[C@@H](O)[C@](C)(O)[C@@H](CC)OC(=O)[C@@H]2C)C[C@@]1(C)OC [Example G-2]
- MIC flag at the example number (Table G) ([3]; at least one BRD strain): G-2* (MIC ≤ 64 μg/mL for at least one BRD strain)
